Laboratory results from patent publication EP1285920A1, “C10 Ester sustituted taxanes as antitumor agents” (Florida State University Research Foundation, Inc., priority 2001, dated 2003).

The compounds below were run on HCT116 (assay: In Vitro cytotoxicity measured by the cell colony formation assay). Details: HCT116 colony formation; 72 h with drug, colonies counted after 7 days; ID50 = concentration producing 50% inhibition of colony formation; read-out: IN VITRO ID 50 HCT116.
Format: cell-based, human
In short: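 Four hundred cells per dish in McCoy's 5a medium with 10% FBS were allowed to attach for 5 h at 37 °C. They were then exposed to compound for 72 h at 37 °C, added as a 10× stock made fresh in medium. After HBSS rinsing and refeeding, colonies were counted after 7 days.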

Structure (SMILES) | IC50
CC=CC(=O)OC1C(=O)C2(C)C(O)CC3OCC3(OC(C)=O)C2C(OC(=O)c2ccccc2)C2(O)CC(OC(=O)C(O)C(NC(=O)OC(C)(C)C)c3ccccn3)C(C)=C1C2(C)C (centres unmarked) [Compound 2348] | < 1 nM

Same assay, conditions: Homo sapiens, HCT-116; read-out: IN VITRO ID 50 HCT116

Structure (SMILES) | IC50
CC(=O)O[C@@]12CO[C@@H]1C[C@H](O)[C@@]1(C)C(=O)[C@H](OC(=O)C3CC3)C3=C(C)[C@@H](OC(=O)[C@H](O)[C@@H](NC(=O)OCC(C)C)c4cccs4)C[C@@](O)([C@@H](OC(=O)c4ccccc4)[C@H]21)C3(C)C [Compound 3129] | < 10 nM
CC(=O)O[C@@]12CO[C@@H]1C[C@H](O)[C@@]1(C)C(=O)[C@H](OC(=O)C3CC3)C3=C(C)[C@@H](OC(=O)[C@H](O)[C@@H](NC(=O)OC(C)(C)C)c4ccccn4)C[C@@](O)([C@@H](OC(=O)c4ccccc4)[C@H]21)C3(C)C [Compound 2802] | < 1 nM
CCOC(=O)N[C@@H](c1cccs1)[C@@H](O)C(=O)O[C@H]1C[C@@]2(O)[C@@H](OC(=O)c3ccccc3)[C@@H]3[C@]4(OC(C)=O)CO[C@@H]4C[C@H](O)[C@@]3(C)C(=O)[C@H](OC(=O)CC)C(=C1C)C2(C)C [Compound 3370] | < 1 nM
CC(=O)OC12COC1CC(O)C1(C)C(=O)C(OC(=O)C(C)C)C3=C(C)C(OC(=O)C(O)C(NC(=O)OC(C)(C)C)c4ccsc4)CC(O)(C(OC(=O)c4ccccc4)C21)C3(C)C (centres unmarked) [Compound 2291] | < 1 nM
CCC(=O)O[C@H]1C(=O)[C@@]2(C)[C@H]([C@H](OC(=O)c3ccccc3)[C@]3(O)C[C@H](OC(=O)[C@H](O)[C@@H](NC(=O)c4ccco4)c4ccco4)C(C)=C1C3(C)C)[C@]1(OC(C)=O)CO[C@@H]1C[C@@H]2O [Compound 3818] | < 1 nM
CC(=O)O[C@@]12CO[C@@H]1C[C@H](O)[C@@]1(C)C(=O)[C@H](OC(=O)c3ccco3)C3=C(C)[C@@H](OC(=O)[C@H](O)[C@@H](NC(=O)OC(C)(C)C)c4ccsc4)C[C@@](O)([C@@H](OC(=O)c4ccccc4)[C@H]21)C3(C)C [Compound 2173] | < 1 nM
C/C=C/C(=O)N[C@@H](c1ccoc1)[C@@H](O)C(=O)O[C@H]1C[C@@]2(O)[C@@H](OC(=O)c3ccccc3)[C@@H]3[C@]4(OC(C)=O)CO[C@@H]4C[C@H](O)[C@@]3(C)C(=O)[C@H](OC(=O)CC)C(=C1C)C2(C)C [Compound 4888] | < 1 nM
CC(=O)O[C@@]12CO[C@@H]1C[C@H](O)[C@@]1(C)C(=O)[C@H](OC(=O)C3CC3)C3=C(C)[C@@H](OC(=O)[C@H](O)[C@@H](NC(=O)OC(C)(C)C)c4ccco4)C[C@@](O)([C@@H](OC(=O)c4ccccc4)[C@H]21)C3(C)C [Compound 0843] | < 1 nM
CC(=O)OC12COC1CC(O)C1(C)C(=O)C(OC(=O)C3CC3)C3=C(C)C(OC(=O)C(O)C(NC(=O)OCC(C)C)c4ccsc4)CC(O)(C(OC(=O)c4ccccc4)C21)C3(C)C (centres unmarked) [Compound 5011] | < 10 nM
CCC(=O)OC1C(=O)C2(C)C(O)CC3OCC3(OC(C)=O)C2C(OC(=O)c2ccccc2)C2(O)CC(OC(=O)C(O)C(NC(=O)OC(C)(C)C)c3ccoc3)C(C)=C1C2(C)C (centres unmarked) [Compound 5495] | < 1 nM
CC(=O)O[C@@]12CO[C@@H]1C[C@H](O)[C@@]1(C)C(=O)[C@H](OC(=O)C3CC3)C3=C(C)[C@@H](OC(=O)[C@H](O)[C@@H](NC(=O)c4ccccc4)c4ccoc4)C[C@@](O)([C@@H](OC(=O)c4ccccc4)[C@H]21)C3(C)C [Compound 2826] | < 1 nM
CC(=O)O[C@@]12CO[C@@H]1C[C@H](O)[C@@]1(C)C(=O)[C@H](OC(=O)C3CC3)C3=C(C)[C@@H](OC(=O)[C@H](O)[C@@H](NC(=O)OC(C)(C)C)c4ccoc4)C[C@@](O)([C@@H](OC(=O)c4ccccc4)[C@H]21)C3(C)C [Compound 2781] | < 1 nM
CC(=O)O[C@@]12CO[C@@H]1C[C@H](O)[C@@]1(C)C(=O)[C@H](OC(=O)C3CC3)C3=C(C)[C@@H](OC(=O)[C@H](O)[C@@H](NC(=O)OC(C)(C)C)c4ccc([N+](=O)[O-])cc4)C[C@@](O)([C@@H](OC(=O)c4ccccc4)[C@H]21)C3(C)C [Compound 0879] | < 1 nM
